Data reported in patent US20210363496A1, “METHOD FOR OBTAINING ARTIFICIAL NEUROMUSCULAR JUNCTION FROM PLURIPOTENT STEM CELLS” (KYOTO UNIVERSITY, priority 2017, published 2021).
“Also recorded” adds a separate entry of the source.

What was measured:
Assay type in all cases: cell-based, human
[1] = test system: in vitro hNMJ culture (myotubes); assay: Motion vector analysis of myotube contraction in in vitro hNMJ; conditions: day 20 of NMJ differentiation
Description: (§1) MyoD-201B7 strain was subjected to myogenic differentiation according to the procedure described in Tanaka et al., PLOS ONE 2013. Specifically, MyoD-201B7 cells were seeded on a Matrigel-coated plate, and myogenic differentiation was induced by adding 1 μg/mL of doxycycline to myogenic differentiation medium (10% KSR+αMEM). Ten days after the addition of doxycycline, neural differentiation was induced by changing the medium to Neurobasal medium supplemented with neurotrophic factors (BDNF, GDNF, and NT3; 10 ng/ml each, R&D Systems). The medium was then replaced every 3 to 4 days to continue culturing.
Using α7s ILCE-7S (Sony Corporation), phase-contrast images using a red-filtered optical source and fluorescence (Fluo8, green) were continuously captured at 15 fps. Using the SI8000 Cell Motion Imaging System (Sony Corporation), which provides motion vector analysis based on the block matching method, motion quantification with the red-separated images in regions of interest (ROIs) and brightness analysis with the green-separated images were performed.
Both moving image capture and motion analysis were performed at 38 fps using the SI8000 Cell Motion Imaging System (Sony Corporation).

[2] = test system: hNMJ culture expressing ChR2-EYFP; assay: Motion analysis of in vitro hNMJ culture by photoactivation (ChR2-EYFP); conditions: day 100 of NMJ differentiation
Description: The plasmid deposited at Addgene by Karl Deisseroth was purchased and used as a plasmid containing a photoactivation domain (pLenti-Synapsin-hChR2 (H134R)-EYFP-WPRE, Addgene plasmid number 20945). The lentivirus transduction system (ViraPower hiperform lentivirus expression system, Invitrogen) was used to transduce the target gene into neural cells. NMJ cultures were treated with virus-containing medium at 37° C. for 48 hours with 5% CO2. After virus infection, the medium was removed and the Neurobasal medium was added for target gene expression. The medium was changed every 3 to 4 days. EYFP expression was examined by confocal microscopy with proper optical settings. Photoactivation was performed with at 488-nm laser wavelength. In addition to EYFP signals, bright-field images were captured simultaneously for muscle movement analysis.

[3] = test system: in vitro hNMJ culture (myotubes); assay: Calcium imaging of in vitro hNMJ; conditions: day 20 of NMJ differentiation, Ca imaging at five ROIs
Description: MyoD-201B7 cells were seeded at a density of 2.2×10^4 cells/well and differentiated into NMJs in a Costar 96-well black-wall/clear-bottom plate. On day 20, the growth medium was removed, and 100 μL Fluo-8 recording medium was added to the cells at 37° C. for 1 hour. The cells were washed twice with PBS and then imaged on In Cell Analyzer 2000. The fluorescence intensity was expressed as the F/F0 ratio.
MyoD-201B7 cells were seeded onto a Matrigel-coated, 96-well black-wall/clear-bottom plate at a density of 2.2×10^4 cells/well. Half of the medium in each well was exchanged every day until the cultures started contracting. The growth medium was removed, and cells were loaded with 100 μL Fluo-8 recording medium at 37° C. for 1 hour. The cells were washed twice with PBS and then the differentiation medium was added to the wells. Ca oscillations were monitored with the FDSS microplate reader, data points were collected at 1-minute intervals, and the data points were analyzed using FDSS software for frequency and amplitude quantification.

in vitro hNMJ culture = assay: Contribution of agrin to the in vitro NMJ system (NMJ area, TEM); conditions: long-term culture
Description: as §1
NMJ cultures were pre-fixed in 2% paraformaldehyde and 2% glutaraldehyde in 0.1 M phosphate buffer (pH 7.4) at 4° C. overnight. Post-fixation was done in 1% osmium tetroxide solution for 1 hour at room temperature. The samples were dehydrated in ethanol (30%, 50%, 70%, 90%, 95%, and 100%) and embedded in Epon resin. Ultrathin sections (80 nm) were cut and stained with uranyl acetate and alkaline lead citrate. The specimens were examined with a transmission electron microscope (H-7650, Hitachi, Ltd.).
Image analysis and quantification were performed by MetaMorph software (Molecular Devices, LLC. USA).

**Q.** Which “spontaneous synchronized contraction-like movement of myotubes” value [1] does the source give for O=C1CN(/N=C/c2ccc(-c3ccc([N+](=O)[O-])cc3)o2)C(O)=N1 [dantrolene] here?
**A.** The value was “inhibited”.

**Q.** What does the source list for curare?
**A.** muscle contraction triggered by blue light (488 nm) [2]: inhibited; excitation of myotubes (transient Ca2+ elevation) [3]: reduced; also recorded: stopped

**Q.** [Ca+2] [Ca^2+, calcium] was tested. Which “excitation of myotubes (transient Ca2+ elevation)” value [3] did it give?
**A.** Its value is “enhanced”.

**Q.** Which “area of the NMJ (ratio of NMJ region)” value (in vitro hNMJ culture) does the source give for agrin here?
**A.** Its value is “increased”.

**Q.** What about the “morphology of myotubes and axon terminals by TEM” value (in vitro hNMJ culture) of the same molecule?
**A.** The value was “Myotube was well confined at fold of junction that bounds axon terminal”.
